The subject of assay [1] is LPS/IL-1β-induced IL-6 secretion in human peripheral blood mononuclear cells (PBMCs). In words: Inhibition of LPS/IL-1β-induced IL-6 secretion in human PBMCs (IL-6 ELISA). The note with it: PBMC, LPS 10 ng/mL + IL-1β 20 ng/mL, 24 h pre-incubation, 20 h stimulation. In kind it is cell-based. As to the method: This experiment was carried out in RPMI 1640 medium containing 10% FBS and 1% penicillin/streptomycin, with each of the compounds at an initial test concentration of 1 μM.
The compound was dissolved in DMSO to prepare a stock solution, which was serially diluted into some working solutions with a 5-fold concentration gradient using the culture medium and then added to a 96-well plate at 10 μL per well. PBMCs (Batch No.: P122101102C; Milecell Biotechnology Inc.) were counted and diluted to a cell concentration of about 1.3×10^6 cells/mL, and then added to the aforementioned compound-containing 96-well plate at 150 μL per well. The system was mixed well and incubated in a 5% CO2 incubator at 37° C. for 24 h. Then 5 μL of LPS (final concentration: 10 ng/mL) and 5 μL of IL-1β (final concentration: 20 ng/mL) were added to each well, respectively, and the culture was continued for 20 h in a 5% CO2 incubator at 37° C. After incubation, the 96-well plate was centrifuged at 2000 rpm for 4 min. The supernatant was collected and diluted 200-fold, then detected using an IL-6 ELISA kit. The OD450 values were read, and converted to IL-6 concentrations based on a standard curve. The dose-response curves were fitted using GraphPad 8.0 to calculate the IC50 values.

The target in assay [2] is T1, IRAK4 (Homo sapiens, UniProt Q9NWZ3).
T1 construct: Effect of the Compounds on IRAK4 Protein Degradation in THP1 Cells; endogenous in cells; host or cells: THP-1 cells
T1 sequence (Q9NWZ3 1-460): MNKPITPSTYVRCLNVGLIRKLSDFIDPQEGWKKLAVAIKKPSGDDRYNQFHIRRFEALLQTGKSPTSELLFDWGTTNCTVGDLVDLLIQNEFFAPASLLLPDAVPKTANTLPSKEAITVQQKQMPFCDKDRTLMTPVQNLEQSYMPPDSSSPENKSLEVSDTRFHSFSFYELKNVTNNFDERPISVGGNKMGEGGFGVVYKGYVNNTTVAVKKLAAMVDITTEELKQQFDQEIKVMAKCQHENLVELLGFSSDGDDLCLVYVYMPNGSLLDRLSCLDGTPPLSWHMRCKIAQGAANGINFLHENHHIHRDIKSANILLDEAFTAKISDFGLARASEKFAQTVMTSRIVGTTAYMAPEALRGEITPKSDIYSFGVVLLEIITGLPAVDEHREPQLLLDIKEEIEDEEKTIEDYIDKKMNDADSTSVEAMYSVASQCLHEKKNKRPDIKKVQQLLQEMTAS
In words: IRAK4 protein degradation in THP1 cells (Western blot). In kind it is cell-based. The note with it: THP-1 cells, 24 h. As to the method: THP-1 cells were seeded into a 96-well cell culture plate, with 2×10^5 cells and 90 μL of culture medium per well. The cell culture plate was cultured in an incubator with 5% CO2 at 37° C. overnight. The compound was dissolved in DMSO to prepare a stock solution, which was serially diluted into a series of working solutions with a 5-fold concentration gradient using the culture medium and then added to the aforementioned 96-well plate at 10 μL per well. The cell culture plate was further incubated for 24 h in a 5% CO2 incubator at 37° C. After incubation, the 96-well plate was centrifuged and the supernatant was discarded, followed by adding 40 μL of cell lysis buffer containing […]/phosphatase inhibitors to each well for sufficient lysis on an ice bath. Protein quantification was performed using the BCA protein quantification kit, followed by the preparation of Western blot samples. […] After electrophoresis, protein transfer was performed using a PVDF membrane under ice bath conditions for 1 h. After the transfer was completed, the PVDF membrane was blocked with gentle shaking in 5% skim milk at room temperature for 1 h. After blocking, the PVDF membrane was incubated with the primary antibody overnight with gentle shaking at 4° C. The PVDF membrane was washed 3 times with TBST, then the secondary antibody was added and incubated for 1 h with gentle shaking at room temperature, followed by washing of the PVDF membrane with TBST for 3 times. After the washes were completed, the chemiluminescent substrate was added; the PVDF membrane was scanned using a Clinx imager, semi-quantitative analysis was performed with ImageJ software, and the DC50 was calculated using GraphPad Prism 8.0.

The source of these data is patent publication US20260216348A1, “IRAK DEGRADATION AGENT AND USE THEREOF” (Increland, priority 2023, published 2026).

pIC50: −log10 of the molar value.

Consider `O=C1CCC(c2ccc3cn(C4CCN(C[C@H]5CC[C@H](n6cc7cc(NC(=O)c8cnn9cccnc89)c(N8CCOCC8)cc7n6)CC5)CC4)nc3c2)C(=O)N1` (stereo partly drawn) [TM-1], for which the pIC50 in assay [1] was 8.23.
In the case of `O=C1CCC(c2ccc3nn(C4CCN(C[C@H]5CC[C@H](n6cc7cc(NC(=O)c8cnn9cccnc89)c(N8CCOCC8)cc7n6)CC5)CC4)cc3c2)C(=O)N1` (stereo partly drawn) [TM-2], in assay [1], the pIC50 was 8.29.
Turning to `C[C@@H]1CN(C[C@H]2CC[C@H](n3cc4cc(NC(=O)c5cnn6cccnc56)c(N(C)C)cc4n3)CC2)CC[C@H]1n1cc2ccc(N3CCC(=O)NC3=O)cc2n1` [TM-26], the pIC50 in assay [1] is 9.27.
For `O=C1CCN(c2ccc3nn(C4CCN(C[C@H]5CC[C@H](n6cc7cc(NC(=O)c8cnn9cccnc89)c(N8CCOCC8)cc7n6)CC5)CC4)cc3c2)C(=O)N1` [TM-44], in assay [1], the pIC50 is 7.99.
On the same count and under the same terms, the figure for `C[C@@H]1CN(c2cc3nn([C@H]4CC[C@H](CN5CCC(n6cc7ccc(N8CCC(=O)NC8=O)cc7n6)CC5)CC4)cc3cc2NC(=O)c2cnn3cccnc23)CCO1` [TM-45] is 8.06; for `C[C@@H]1CN(c2cc3nn([C@H]4CC[C@H](CN5CCC(n6cc7cc(N8CCC(=O)NC8=O)ccc7n6)CC5)CC4)cc3cc2NC(=O)c2cnn3cccnc23)CCO1` [TM-46] it is 8.13.
The same measure, in the same setting: the figure for `C[C@@H]1CN(c2cc3nn([C@H]4CC[C@H](CN5CCC(n6cc7cc(C8CCC(=O)NC8=O)ccc7n6)CC5)CC4)cc3cc2NC(=O)c2cnn3cccnc23)CCO1` (stereo partly drawn) [TM-47] is 8.51; for `C[C@@H]1CN(c2cc3nn([C@H]4CC[C@H](CN5CCC(n6cc7ccc(C8CCC(=O)NC8=O)cc7n6)CC5)CC4)cc3cc2NC(=O)c2cnn3cccnc23)CCO1` (stereo partly drawn) [TM-48] it is 8.79.
In the case of `C[C@@H]1CN(c2cc3nn(C4CCN(CC5CCC(n6cc7cc(C8CCC(=O)NC8=O)ccc7n6)CC5)CC4)cc3cc2NC(=O)c2cnn3cccnc23)CCO1` (stereo partly drawn) [TM-49], the pIC50 in assay [1] was 8.88.
Regarding `C[C@@H]1CN(c2cc3nn(C4CCN(CC5CCC(n6cc7ccc(C8CCC(=O)NC8=O)cc7n6)CC5)CC4)cc3cc2NC(=O)c2cnn3cccnc23)CCO1` (stereo partly drawn) [TM-50], the negative logarithm of the IC50 (pIC50) in assay [1] was 8.33.
Regarding `CN(C)c1cc2nn(C3CCN(C[C@H]4CC[C@H](n5cc6ccc(N7CCC(=O)NC7=O)cc6n5)CC4)CC3)cc2cc1NC(=O)c1cnn2cccnc12` [TM-52], in assay [1], the pIC50 is 7.73.
Take `CN(C)c1cc2nn(C3CCN(C[C@H]4CC[C@H](n5cc6cc(N7CCC(=O)NC7=O)ccc6n5)CC4)CC3)cc2cc1NC(=O)c1cnn2cccnc12` [TM-53]: the pIC50 in assay [1] is 8.21.
For `CN(C)c1cc2nn([C@H]3CC[C@H](CN4CCN(c5nc6cc(N7CCC(=O)NC7=O)ccc6s5)CC4)CC3)cc2cc1NC(=O)c1cnn2cccnc12` [TM-54], the pIC50 in assay [1] was 8.51.
For `CN(C)c1cc2nn([C@H]3CC[C@H](CN4CCN(c5nc6ccc(N7CCC(=O)NC7=O)cc6s5)CC4)CC3)cc2cc1NC(=O)c1cnn2cccnc12` [TM-55], the pIC50 in assay [1] was 8.79.
Same read-out and setting: the figure for `C[C@@H]1CN(c2cc3nn([C@H]4CC[C@H](CN5CCN(c6nc7cc(N8CCC(=O)NC8=O)ccc7s6)CC5)CC4)cc3cc2NC(=O)c2cnn3cccnc23)CCO1` [TM-56] is 8.06; for `C[C@@H]1CN(c2cc3nn([C@H]4CC[C@H](CN5CCN(c6nc7ccc(N8CCC(=O)NC8=O)cc7s6)CC5)CC4)cc3cc2NC(=O)c2cnn3cccnc23)CCO1` [TM-57] it is 7.99; for `CN(C)c1cc2nn(C3CCC(CN4CC5CN(c6nc7ccc(N8CCC(=O)NC8=O)cc7s6)CC5C4)CC3)cc2cc1NC(=O)c1cnn2cccnc12` (stereo not drawn) [TM-60] it is 8.71.
For the compound `CN(C)c1cc2nn(C3CCC(CN4CC5CN(c6nc7cc(N8CCC(=O)NC8=O)ccc7s6)CC5C4)CC3)cc2cc1NC(=O)c1cnn2cccnc12` (stereo not drawn) [TM-61], the pIC50 in assay [1] is 8.94.
Consider `C[C@@H]1CN(c2cc3nn([C@H]4CC[C@H](CN5CC6CN(c7nc8ccc(N9CCC(=O)NC9=O)cc8s7)CC6C5)CC4)cc3cc2NC(=O)c2cnn3cccnc23)CCO1` (stereo partly drawn) [TM-62], for which the pIC50 in assay [1] is 8.61.
For the compound `C[C@@H]1CN(c2cc3nn([C@H]4CC[C@H](CN5CC6CN(c7nc8cc(N9CCC(=O)NC9=O)ccc8s7)CC6C5)CC4)cc3cc2NC(=O)c2cnn3cccnc23)CCO1` (stereo partly drawn) [TM-63], the pIC50 in assay [1] is 8.05.
Turning to `C[C@@H]1CN(C[C@H]2CC[C@H](n3cc4cc(NC(=O)c5cnn6cccnc56)c(N(C)C)cc4n3)CC2)CCN1c1nc2ccc(N3CCC(=O)NC3=O)cc2s1` [TM-65], the pIC50 in assay [1] was 8.65.
Still for that read-out and setting: the figure for `C[C@H]1CN(C[C@H]2CC[C@H](n3cc4cc(NC(=O)c5cnn6cccnc56)c(N(C)C)cc4n3)CC2)CCN1c1nc2ccc(N3CCC(=O)NC3=O)cc2s1` [TM-66] is 7.71.
With `CN(C)c1cc2nn([C@H]3CC[C@H](CN4C[C@@H]5C[C@H]4CN5c4nc5ccc(N6CCC(=O)NC6=O)cc5s4)CC3)cc2cc1NC(=O)c1cnn2cccnc12` [TM-74], the pIC50 in assay [1] was 9.07.
Turning to `CN(C)c1cc2nn([C@H]3CC[C@H](CN4CCN(c5nc6ccc(N7CCC(=O)NC7=O)cc6o5)CC4)CC3)cc2cc1NC(=O)c1cnn2cccnc12` [TM-75], the pIC50 in assay [1] is 7.88.
The same measure, in the same setting: the figure for `CN(C)c1cc2nn([C@H]3CC[C@H](CN4C[C@H]5C[C@@H]4CN5c4nc5ccc(N6CCC(=O)NC6=O)cc5o4)CC3)cc2cc1NC(=O)c1cnn2cccnc12` [TM-83] is 7.36; for `CN(C)c1cc2nn([C@H]3CC[C@H](CN4CCN(c5nc6cc(F)c(N7CCC(=O)NC7=O)cc6o5)CC4)CC3)cc2cc1NC(=O)c1cnn2cccnc12` [TM-85] it is 8.08.
On the same count and under the same terms, the figure for `CN(C)c1cc2nn([C@H]3CC[C@H](CN4CC5(CCN(c6nc7cc(F)c(N8CCC(=O)NC8=O)cc7o6)CC5)C4)CC3)cc2cc1NC(=O)c1cnn2cccnc12` [TM-90] is 8.84; for `CN(C)c1cc2nn([C@H]3CC[C@H](CN4CCN(c5nc6ccc(N7CCC(=O)NC7=O)cn6n5)CC4)CC3)cc2cc1NC(=O)c1cnn2cccnc12` [TM-110] it is 7.67.
Regarding `CN(C)c1cc2nn(C3CCN(CC4CCN(c5nc6cc(N7CCC(=O)NC7=O)ccc6s5)CC4)CC3)cc2cc1NC(=O)c1cnn2cccnc12` [TM-128], the pIC50 in assay [1] was 7.44.
Regarding `CN(C)c1cc2nn([C@H]3CC[C@H](CN4CCC5(CC4)C[C@@H](n4cc6cc(F)c(C7CCC(=O)NC7=O)cc6n4)CO5)CC3)cc2cc1NC(=O)c1cnn2cccnc12` (stereo partly drawn) [TM-140], the DC50 in assay [2] worked out at 13.9 nM.
As to `CN(C)c1cc2nn([C@H]3CC[C@H](CN4CCC(C5Nc6cc(N7CCC(=O)NC7=O)ccc6C5=O)CC4)CC3)cc2cc1NC(=O)c1cnn2cccnc12` (stereo partly drawn) [TM-144], in assay [1], the pIC50 was 7.42.
Turning to `CN(C)c1cc2nn([C@H]3CC[C@H](CN4CCN(c5nc6cc(N7CCC(=O)NC7=O)ccc6o5)CC4)CC3)cc2cc1NC(=O)c1cnn2cccnc12` [TM-145], the pIC50 in assay [1] is 8.58.
For `CN(C)c1cc2nn([C@H]3CC[C@H](CN4C5CCC4CN(c4nc6ccc(N7CCC(=O)NC7=O)cc6o4)C5)CC3)cc2cc1NC(=O)c1cnn2cccnc12` [TM-146], the pIC50 in assay [1] is 7.36.
Regarding `CN(C)c1cc2nn([C@H]3CC[C@H](CN4CC5(CCN(c6nc7ccc(N8CCC(=O)NC8=O)cn7n6)CC5)C4)CC3)cc2cc1NC(=O)c1cnn2cccnc12` [TM-148], the pIC50 in assay [1] is 7.94.
Consider `CN(C)c1cc2nn([C@H]3CC[C@H](CN4CCCN(c5nc6ccc(N7CCC(=O)NC7=O)cc6s5)CC4)CC3)cc2cc1NC(=O)c1cnn2cccnc12` [TM-150], for which the pIC50 in assay [1] is 8.16.
For the compound `CN(C)c1cc2nn([C@H]3CC[C@H](CN4CCC(c5cc6cc(N7CCC(=O)NC7=O)ccn6n5)CC4)CC3)cc2cc1NC(=O)c1cnn2cccnc12` [TM-175], the pIC50 in assay [1] is 7.88.

Broadly, the pIC50 is the IC50 on a negative log10 scale, so that one unit is a factor of ten. As a reminder, the DC50 is the concentration giving 50% degradation. Lower therefore signals degradation at low concentration.
